Assay results from patent publication EP0318056A2, “Novel antibiotics and process for preparing the same” (MEIJI SEIKA KAISHA LTD., priority 1987, dated 1989).
In brackets after ≈: the same amount, converted by molar mass.

Key:
[1] = mice, dose of 200 mg/kg (i.p.)
Meth-A = test: Cytotoxicity on tumor cells; assay type: cell-based; conditions: mouse fibrosarcoma, 37°C, 72 hours, 5% CO₂, probit method, read-out: IC₅₀
L-1210 = test: Cytotoxicity on tumor cells; assay type: cell-based; conditions: L1210; L-1210, mouse leukemia; 37°C, 72 hours, 5% CO₂; probit method; read-out: IC₅₀
K562 = test: Cytotoxicity on tumor cells; assay type: cell-based; conditions: K562, human leukaemia; 37°C, 72 hours, 5% CO₂; probit method; read-out: IC₅₀
HMV-1 = test: Cytotoxicity on tumor cells; assay type: cell-based; conditions: HMV-1, human melanoma; 37°C, 72 hours, 5% CO₂; probit method; read-out: IC₅₀
PC13 = test: Cytotoxicity on tumor cells; assay type: cell-based; conditions: PC-13; PC13, human lung cancer; 37°C, 72 hours, 5% CO₂; probit method; read-out: IC₅₀
PC10 = test: Cytotoxicity on tumor cells; assay type: cell-based; conditions: PC10, human lung cancer; 37°C, 72 hours, 5% CO₂; probit method; read-out: IC₅₀
PC14 = test: Cytotoxicity on tumor cells; assay type: cell-based; conditions: PC-14; PC14, human lung cancer; 37°C, 72 hours, 5% CO₂; probit method; read-out: IC₅₀
P-388 = test: Cytotoxicity on tumor cells; assay type: cell-based; conditions: P388; P-388, mouse leukemia; 37°C, 72 hours, 5% CO₂; probit method; read-out: IC₅₀
B16 = test: Cytotoxicity on tumor cells; assay type: cell-based; conditions: B16, mouse melanoma; 37°C, 72 hours, 5% CO₂; probit method; read-out: IC₅₀
HL-60 = test: Cytotoxicity on tumor cells; assay type: cell-based; conditions: HL-60, human leukemia; 37°C, 72 hours, 5% CO₂; probit method; read-out: IC₅₀
KB = test: Cytotoxicity on tumor cells; assay type: cell-based; conditions: human nasopharynx, 37°C, 72 hours, 5% CO₂, probit method, read-out: IC₅₀
in vivo = conditions: mouse, ip
[2] = test system: Bacillus anthracis No. 119; test: microbe, parasite or virus in culture; assay type: cell-based; conditions: NO.119, read-out: Minimum Inhibitory Concn.
[3] = qualitative, in the named solvents
[4] = test system: Klebsiella pneumoniae PCI 602; test: Antimicrobial activity, serial dilution method on agar plate; assay type: cell-based; conditions: PCI602, read-out: Minimum Inhibitory Concn.
Method: (§1) The antimicrobial activity of SF2582 A and B on various test microorganisms shown in Table 2 below were determined by the serial dilution method on agar plate, and the minimum inhibitory concentrations (µg/ml) obtained are shown in Table 2 below.

[5] = test system: Enterococcus faecalis ATCC 8043; test: as above; assay type: cell-based; conditions: ATCC8043, read-out: Minimum Inhibitory Concn.
Method: as §1

[6] = test system: Providencia rettgeri J-0026; test: as above; assay type: cell-based; conditions: J0026, read-out: Minimum Inhibitory Concn.
Method: as §1

Proteus vulgaris OX 19 = test: as above; assay type: cell-based; conditions: OX19, read-out: Minimum Inhibitory Concn.
Method: as §1

Salmonella sp. D-0001 = test: as above; assay type: cell-based; conditions: SP.D0001, read-out: Minimum Inhibitory Concn.
Method: as §1

[7] = test system: Staphylococcus epidermidis 109; test: as above; assay type: cell-based; conditions: read-out: Minimum Inhibitory Concn.
Method: as §1

[8] = test system: Manthomonas maltophilia M-0627; test: as above; assay type: cell-based; conditions: read-out: Minimum Inhibitory Concn.
Method: as §1

[9] = test system: Staphylococcus aureus Smith S-424; test: as above; assay type: cell-based; conditions: SMITHS424, read-out: Minimum Inhibitory Concn.
Method: as §1

[10] = test system: Escherichia coli JR 661 W/677; test: as above; assay type: cell-based; conditions: JR661W/677, read-out: Minimum Inhibitory Concn.
Method: as §1

[11] = test system: Staphylococcus aureus 209P JC-1; test: as above; assay type: cell-based; conditions: read-out: Minimum Inhibitory Concn.
Method: as §1

[12] = test system: Salmonella enteritidis No. 11; test: as above; assay type: cell-based; conditions: Salmonella enterica, read-out: Minimum Inhibitory Concn.
Method: as §1

[13] = test system: Salmonella typhimurium LT-2; test: as above; assay type: cell-based; conditions: Salmonella enterica, read-out: Minimum Inhibitory Concn.
Method: as §1

Salmonella typhi O-901-W = test: as above; assay type: cell-based; conditions: Salmonella enterica, read-out: Minimum Inhibitory Concn.
Method: as §1

[14] = test system: Klebsiella pneumoniae 22 #3038; test: as above; assay type: cell-based; conditions: read-out: Minimum Inhibitory Concn.
Method: as §1

[15] = test system: Shigella sonnei EW 33 Type 1; test: as above; assay type: cell-based; conditions: EW33TYPE1, read-out: Minimum Inhibitory Concn.
Method: as §1

Escherichia coli JC-2 = test: as above; assay type: cell-based; conditions: JC2, read-out: Minimum Inhibitory Concn.
Method: as §1

Escherichia coli No. 29 = test: as above; assay type: cell-based; conditions: read-out: Minimum Inhibitory Concn.
Method: as §1

[16] = test system: Escherichia coli W 3630 RGN 823; test: as above; assay type: cell-based; conditions: W3630RGN823, read-out: Minimum Inhibitory Concn.
Method: as §1

Proteus mirabilis GN 310 = test: as above; assay type: cell-based; conditions: GN310, read-out: Minimum Inhibitory Concn.
Method: as §1

[17] = test system: Staphylococcus epidermidis ATCC 14990; test: as above; assay type: cell-based; conditions: ATCC14990, read-out: Minimum Inhibitory Concn.
Method: as §1

[18] = test system: Citrobacter freundii GN 346; test: as above; assay type: cell-based; conditions: GN346, read-out: Minimum Inhibitory Concn.
Method: as §1

Morganella morganii Kono = test: as above; assay type: cell-based; conditions: read-out: Minimum Inhibitory Concn.
Method: as §1

[19] = test system: Serratia marcescens MB-3848; test: as above; assay type: cell-based; conditions: MB3848, read-out: Minimum Inhibitory Concn.
Method: as §1

[20] = test system: Pseudomonas aeruginosa MB-3829; test: as above; assay type: cell-based; conditions: MB3829, read-out: Minimum Inhibitory Concn.
Method: as §1

[21] = test system: Staphylococcus aureus No. 26; test: as above; assay type: cell-based; conditions: read-out: Minimum Inhibitory Concn.
Method: as §1

P-388 tumor cells = test: Antitumor activity in mice intraperitoneally implanted with P-388 tumor cells; assay type: in vivo; conditions: P-388 mice

| SMILES | LD50 at 336 h (in vivo) [mg/kg] | MIC [2] [µg/mL] | Solubility [3] | MIC [4] [µg/mL] | MIC [5] [µg/mL] | MIC [6] [µg/mL] | MIC (Proteus vulgaris OX 19) [µg/mL] | MIC (Salmonella sp. D-0001) [µg/mL] | MIC [7] [µg/mL] | MIC [8] [µg/mL] | MIC [9] [µg/mL] | MIC [10] [µg/mL] | MIC [11] [µg/mL] | MIC [12] [µg/mL] | MIC [13] [µg/mL] | MIC (Salmonella typhi O-901-W) [µg/mL] | MIC [14] [µg/mL] | MIC [15] [µg/mL] | MIC (Escherichia coli JC-2) [µg/mL] | MIC (Escherichia coli No. 29) [µg/mL] | further results |
| --- | --- | --- | --- | --- | --- | --- | --- | --- | --- | --- | --- | --- | --- | --- | --- | --- | --- | --- | --- | --- | --- |
| COC(=O)C1(C)Nc2c(O)cc3c(c2C1=O)C(CO)CN3C(=O)c1cc2cc(OC)c(OC)c(OC)c2[nH]1 (stereo not shown) | – | – | – | – | – | – | – | – | – | – | – | – | – | – | – | – | – | – | – | – | death in acute toxicity test [1]: no case of death; IC50 (Meth-A): 42 µg/mL (≈ 79.9 µM); IC50 (L-1210): 1.3 µg/mL (≈ 2.47 µM); IC50 (K562): 35.6 µg/mL (≈ 67.7 µM); IC50 (HMV-1): 12.1 µg/mL (≈ 23 µM); IC50 (PC13): 39.5 µg/mL (≈ 75.2 µM); IC50 (PC10): 14.1 µg/mL (≈ 26.8 µM); IC50 (PC14): > 50 µg/mL; IC50 (P-388): 9.4 µg/mL (≈ 17.9 µM); IC50 (B16): 5.1 µg/mL (≈ 9.7 µM); IC50 (HL-60): 31.5 µg/mL (≈ 59.9 µM); IC50 (KB): 18 µg/mL (≈ 34.3 µM) |
| COC(=O)C1(C)Nc2c(O)cc3c(c2C1=O)C(CCl)CN3C(=O)c1cc2cc(OC)c(OC)c(OC)c2[nH]1 (stereo not shown) [SF2582 A] | 0.25 to 1 | 0.05 (≈ 0.0919 µM) | soluble in methanol, ethyl acetate, acetone, chloroform, or dimethyl sufoxide; insoluble in water or haxane | 25 (≈ 46 µM) | 0.05 (≈ 0.0919 µM) | 25 (≈ 46 µM) | > 100 | 12.5 (≈ 23 µM) | < 0.025 | 100 (≈ 184 µM) | < 0.025 | 12.5 (≈ 23 µM) | < 0.025 | 0.78 (≈ 1.43 µM) | 12.5 (≈ 23 µM) | 3.13 (≈ 5.75 µM) | 25 (≈ 46 µM) | 3.13 (≈ 5.75 µM) | 12.5 (≈ 23 µM) | 6.25 (≈ 11.5 µM) | MIC [16]: 6.25 µg/mL (≈ 11.5 µM); MIC (Proteus mirabilis GN 310): 25 µg/mL (≈ 46 µM); MIC [17]: 0.05 µg/mL (≈ 0.0919 µM); MIC [18]: 3.13 µg/mL (≈ 5.75 µM); MIC (Morganella morganii Kono): 50 µg/mL (≈ 91.9 µM); MIC [19]: 25 µg/mL (≈ 46 µM); MIC [20]: 25 µg/mL (≈ 46 µM); MIC [21]: < 0.025 µg/mL; T/C (effect of improving incidence of survival) (P-388 tumor cells; dose 0.033 mg/kg intraperitoneally, once a day for consecutive 2 days): 114%; T/C (effect of improving incidence of survival) (P-388 tumor cells; dose 0.13 mg/kg intraperitoneally, once a day for consecutive 2 days): 148%; T/C (effect of improving incidence of survival) (P-388 tumor cells; dose 0.54 mg/kg intraperitoneally, once a day for consecutive 2 days): 128%; T/C (effect of improving incidence of survival) (P-388 tumor cells; dose 2.14 mg/kg intraperitoneally, once a day for consecutive 2 days): 80% |
| COC(=O)C1(C)Nc2c(O)cc3c(c2C1=O)CC(Cl)CN3C(=O)c1cc2cc(OC)c(OC)c(OC)c2[nH]1 (stereo not shown) [SF2582 B] | 1 to 2 | 0.05 (≈ 0.0919 µM) | soluble in methanol, ethyl acetate, acetone, chloroform, or dimethyl sufoxide; insoluble in water or haxane | 50 (≈ 91.9 µM) | 0.1 (≈ 0.184 µM) | 25 (≈ 46 µM) | 50 (≈ 91.9 µM) | 25 (≈ 46 µM) | 0.05 (≈ 0.0919 µM) | 100 (≈ 184 µM) | < 0.025 | 25 (≈ 46 µM) | 0.05 (≈ 0.0919 µM) | 1.56 (≈ 2.87 µM) | 25 (≈ 46 µM) | 3.13 (≈ 5.75 µM) | > 100 | 6.25 (≈ 11.5 µM) | 25 (≈ 46 µM) | 12.5 (≈ 23 µM) | MIC [16]: 12.5 µg/mL (≈ 23 µM); MIC (Proteus mirabilis GN 310): 25 µg/mL (≈ 46 µM); MIC [17]: 0.05 µg/mL (≈ 0.0919 µM); MIC [18]: 6.25 µg/mL (≈ 11.5 µM); MIC (Morganella morganii Kono): 50 µg/mL (≈ 91.9 µM); MIC [19]: 25 µg/mL (≈ 46 µM); MIC [20]: 50 µg/mL (≈ 91.9 µM); MIC [21]: < 0.025 µg/mL; T/C (effect of improving incidence of survival) (P-388 tumor cells; dose 0.16 mg/kg intraperitoneally, only once): 117%; T/C (effect of improving incidence of survival) (P-388 tumor cells; dose 0.63 mg/kg intraperitoneally, only once): 159%; T/C (effect of improving incidence of survival) (P-388 tumor cells; dose 2.5 mg/kg intraperitoneally, only once): 159%; T/C (effect of improving incidence of survival) (P-388 tumor cells; dose 10.0 mg/kg intraperitoneally, only once): 80% |
